Source: patent US11633392B2 (priority 2016, dated 2023)
Marks after values point to notes of the source that are not given here.

Key:
[1] = target: T1, human opioid δ receptor (Homo sapiens, UniProt P41143); assay: Opioid receptor function test (Lance Ultra cAMP Kit), δ receptor; format: cell-based; conditions: for EC50: CHO cells expressing human δ receptor, cAMP, in the presence of forskolin; for Emax: ratio to maximum reaction of control drug SNC80 taken as 100%
T1 construct: host or cells: CHO cells
Experimental: (§1) Opioid Receptor Function Test
(§2) The functional activities of the compounds provided by the present invention on the μ, δ, and κ opioid receptors were investigated.
(§3) The test was performed by using Lance Ultra cAMP Kit (PerkinElmer) according to a method predetermined for the kit. In the evaluation of the agonistic activity, CHO cells expressing each of the human opioid receptors (δ, μ, and κ, accession numbers and catalog numbers are mentioned below) and 10 μM of each test compound were reacted for 30 minutes in an assay buffer (1× HBSS, […], pH 7.4, […] (isobutylmethylxanthine), 7.5% BSA) in the presence of forskolin. Subsequently, the cAMP detection reagent included in the kit was added, and 1 hour afterward, time-resolved fluorescence measurement was performed by using the EnVision plate reader (PerkinElmer). The test compounds and the control drugs (δ: SNC80, μ: DAMGO, κ: U-69593) were evaluated in a concentration range of 10^−12 to 10^−5 M, a dose-response curve of each test compound was obtained from the fluorescence values at 665 nm, and EC50 value and the Emax value were calculated. The Emax value was calculated as a ratio of the maximum reaction of the test compound to the maximum reaction of each control drug, which is taken as 100%.
(§4) • δ: Catalog No. CT4607, Accession No. NM_000911.2 • μ: Catalog No. CT4605, Accession No. NM_000914 • κ: Catalog No. CT4606, Accession No. NM_000912 (ChanTest Corporation)

[2] = target: T2, human opioid μ receptor (Homo sapiens, UniProt P35372); assay: Opioid receptor function test (Lance Ultra cAMP Kit), μ receptor; format: cell-based; conditions: for μ receptor reaction rate at the maximum concentration (reference value, marked *): maximum reaction not reached, maximum concentration 10 μM, DAMGO = 100%; for EC50: CHO cells expressing human μ receptor, cAMP, in the presence of forskolin, read-out: μ receptor EC50 value; for Emax: ratio to maximum reaction of control drug DAMGO taken as 100%
T2 construct: host or cells: CHO cells
Experimental: as §1, §2, §3, §4

[3] = target: T3, human opioid κ receptor (Homo sapiens, UniProt P41145); assay: Opioid receptor function test (Lance Ultra cAMP Kit), κ receptor; format: cell-based; conditions: for EC50: CHO cells expressing human κ receptor, cAMP, in the presence of forskolin; for Emax: ratio to maximum reaction of control drug U-69593 taken as 100%
T3 construct: host or cells: CHO cells
Experimental: as §1, §2, §3, §4

[4] = system: C57BL/6N male mice; assay: Mouse elevated plus maze test; format: in vivo; conditions: subcutaneous
Experimental: Mouse Elevated Plus Maze Test
For the test, 5 to 6 weeks old C57BL/6N male mice were used. On a plus maze apparatus consisting of a wall-less running route (open arm, width 6 cm, length 30 cm) and a running route with a wall (closed arm, width 6 cm, length 30 cm, height of wall 15 cm), and having a height of 40 cm, a mouse was put so as to be directed to the running route with a wall, and allowed to spontaneously enter into the plus maze. Each test substance was dissolved in saline or 0.005 N HCl in saline, and subcutaneously administered on the back 30 minutes before the start of the test. At the time of the start of the test, video recording with a video camera was started, the time at which the mouse entered into the plus maze is considered to be the start of the test, and exploratory behavior was recorded for 5 minutes. On the basis of the video image, staying times in the running routes were determined, and wall-less running route staying time ratio (%) was calculated.

[5] = target: T4, hERG potassium channel (Homo sapiens, UniProt Q12809); assay: hERG potassium channel inhibition test (automatic patch clamp); format: cell-based; conditions: pH 7.4, hERG-expressing CHO cells, tail current, read-out: hERG channel inhibitory action
T4 construct: host or cells: CHO cells
Experimental: hERG (Human Ether-A-Go-Go-Related Gene) Potassium Channel Inhibition Test
The test was performed with Port-a-Patch automatic patch clump apparatus (Nanion Technologies) using hERG channel-stably expressing CHO cells (purchased from Channelopathy Foundation). The membrane potential of the cells was maintained at −80 mV, then there were applied a depolarization pulse at +20 mV for 1.5 seconds, and a following test pulse at −50 mV for 1.5 seconds at a frequency of 1 time per 10 seconds, and the hERG current was confirmed as a tail current induced by the test pulse. The test compound was dissolved in an extracellular fluid (137 mM NaCl, 4 mM KCl, 1.8 mM CaCl2, 1 mM MgCl2, 10 mM D(+)-glucose, 10 mM HEPES, pH 7.4), and the solution was refluxed at room temperature for 5 minutes. The inhibition ratio was obtained from the ratio of the tail current value observed after the compound was applied based on the tail current value observed before the compound was applied, which was taken as 100%.

[6] = Metabolic stability test; format: in vitro ADME; conditions: liver microsomes; human hepatic microsomes, 0 to 60 minutes; read-out: metabolic clearance CLint
Experimental: Human hepatic microsomes and a test substance were reacted for a certain period of time (0 to 60 minutes). The test substance, which was not metabolized in the reaction sample, was measured, and remaining ratio was calculated. The test substance-remaining ratio at the time when the reaction time is 0 hour is taken as 100%. The remaining ratio after incubation was plotted against time as a log-linear plot to obtain a regression line (y=100 e^−kt, k=inclination of straight line: clearance rate constant), and metabolic clearance CLint (mL/min/kg) was calculated by using the following equation. CLint*=k(−min)×52.5(mg MS protein/g liver)×26(g liver/kg)/MS protein (mg MS protein/mL) • *: Davies, B. and Morris T., Physiological parameters in laboratory animals and humans, Pharm. Res., 10(7)1093-1095, 1993 (Test Results)

[7] = system: Wistar male rats; assay: Rat elevated plus maze test; format: in vivo; conditions: oral, 3 mg/kg, 2 hours before test (FIG. 6)
Experimental: Rat Elevated Plus Maze Test
Anxiolytic effects of the compounds provided by the present invention were investigated by the rat elevated plus maze test.
For the test, 7 to 9 weeks old Wistar male rats were used. […] Each test substance was dissolved in a 4.5% aqueous solution of cyclodextrin, and orally administered 2 hours before the start of the test. The test data were automatically analyzed by using video image action analysis software (Smart3.0, PanLab S.L., PanLab), and wall-less running route staying time ratio (%) was calculated.

T2 sequence (P35372 whole entry): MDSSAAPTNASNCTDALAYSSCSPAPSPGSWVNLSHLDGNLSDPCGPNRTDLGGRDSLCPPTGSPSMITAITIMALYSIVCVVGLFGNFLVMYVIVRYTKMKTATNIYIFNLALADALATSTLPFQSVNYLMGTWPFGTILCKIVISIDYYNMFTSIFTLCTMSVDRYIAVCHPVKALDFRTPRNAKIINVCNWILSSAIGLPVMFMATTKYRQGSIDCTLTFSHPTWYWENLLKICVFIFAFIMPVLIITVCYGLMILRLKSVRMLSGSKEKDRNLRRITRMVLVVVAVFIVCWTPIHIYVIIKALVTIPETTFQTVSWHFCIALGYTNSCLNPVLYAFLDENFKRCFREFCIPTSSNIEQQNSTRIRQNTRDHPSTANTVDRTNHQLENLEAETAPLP
T1 sequence (P41143 whole entry): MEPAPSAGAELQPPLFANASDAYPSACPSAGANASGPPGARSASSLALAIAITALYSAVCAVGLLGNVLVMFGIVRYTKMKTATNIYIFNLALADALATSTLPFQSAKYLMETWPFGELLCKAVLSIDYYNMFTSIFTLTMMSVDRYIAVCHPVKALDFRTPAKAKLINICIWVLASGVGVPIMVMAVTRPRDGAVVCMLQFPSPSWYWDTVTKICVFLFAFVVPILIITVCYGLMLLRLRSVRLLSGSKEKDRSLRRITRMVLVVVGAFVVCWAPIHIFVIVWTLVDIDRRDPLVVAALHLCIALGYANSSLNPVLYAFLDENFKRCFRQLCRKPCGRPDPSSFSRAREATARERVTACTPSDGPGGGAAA
T3 sequence (P41145 whole entry): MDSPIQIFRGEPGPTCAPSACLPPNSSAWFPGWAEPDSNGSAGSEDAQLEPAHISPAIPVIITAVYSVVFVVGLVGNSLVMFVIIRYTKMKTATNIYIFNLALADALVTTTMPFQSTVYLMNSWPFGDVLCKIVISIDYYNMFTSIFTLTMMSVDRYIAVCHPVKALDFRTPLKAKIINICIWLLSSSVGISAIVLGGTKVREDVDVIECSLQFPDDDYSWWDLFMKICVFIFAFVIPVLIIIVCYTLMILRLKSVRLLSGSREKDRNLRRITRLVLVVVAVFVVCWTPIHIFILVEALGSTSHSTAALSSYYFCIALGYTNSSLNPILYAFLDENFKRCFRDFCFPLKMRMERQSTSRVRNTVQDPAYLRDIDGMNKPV
T4 sequence (Q12809 whole entry): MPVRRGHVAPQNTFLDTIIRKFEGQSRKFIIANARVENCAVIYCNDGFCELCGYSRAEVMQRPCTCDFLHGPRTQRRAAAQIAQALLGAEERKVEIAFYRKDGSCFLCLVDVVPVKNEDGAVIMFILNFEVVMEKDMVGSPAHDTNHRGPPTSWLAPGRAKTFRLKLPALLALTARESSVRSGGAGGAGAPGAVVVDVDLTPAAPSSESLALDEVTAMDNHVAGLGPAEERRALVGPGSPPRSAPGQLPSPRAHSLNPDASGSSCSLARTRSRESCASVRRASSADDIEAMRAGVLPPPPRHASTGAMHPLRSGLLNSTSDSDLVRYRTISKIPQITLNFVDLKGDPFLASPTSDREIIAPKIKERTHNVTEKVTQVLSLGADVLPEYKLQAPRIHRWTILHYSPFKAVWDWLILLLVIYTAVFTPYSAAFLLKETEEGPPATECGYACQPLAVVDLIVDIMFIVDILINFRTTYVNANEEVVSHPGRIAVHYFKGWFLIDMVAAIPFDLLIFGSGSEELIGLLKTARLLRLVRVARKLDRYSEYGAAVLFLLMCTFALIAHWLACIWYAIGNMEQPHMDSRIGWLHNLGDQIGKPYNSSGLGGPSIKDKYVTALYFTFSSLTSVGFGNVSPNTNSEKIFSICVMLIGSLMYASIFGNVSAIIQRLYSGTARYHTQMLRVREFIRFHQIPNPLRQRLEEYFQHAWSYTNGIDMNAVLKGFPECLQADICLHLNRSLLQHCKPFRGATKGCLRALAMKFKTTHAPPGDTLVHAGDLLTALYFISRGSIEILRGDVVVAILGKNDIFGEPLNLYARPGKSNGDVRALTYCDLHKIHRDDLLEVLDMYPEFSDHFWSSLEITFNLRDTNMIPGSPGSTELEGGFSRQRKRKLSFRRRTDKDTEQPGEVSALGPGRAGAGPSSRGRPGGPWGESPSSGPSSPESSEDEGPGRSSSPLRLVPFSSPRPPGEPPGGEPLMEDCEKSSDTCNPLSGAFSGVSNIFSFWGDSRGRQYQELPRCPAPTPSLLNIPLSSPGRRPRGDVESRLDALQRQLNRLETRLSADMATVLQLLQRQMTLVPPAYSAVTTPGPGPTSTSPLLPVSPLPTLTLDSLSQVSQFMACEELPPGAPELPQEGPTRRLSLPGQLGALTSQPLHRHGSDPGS

Which EC50 [1] does the source give for `O=C(c1cccc[n+]1[O-])N1C[C@H]2C[C@@]34CC[C@@H]1[C@@H]2[C@@]31CCN(CC2CC2)[C@@H]4Cc2ccc(O)cc21` [Example 1, 2-((1S,3aR,5aS,6R,11bR,11cS)-14-(cyclopropylmethyl)-10-hydroxy-2,3,3a,4,5,6,7,11c-octahydro-1H-6,11b-(epiminoethano)-1,5a-methanonaphtho[1,2-e]indole-3-carbonyl)pyridine 1-oxide] here?
Its EC50 is < 3 nM.

And the Emax [1]?
Its Emax is 88%.

What about the “μ receptor reaction rate at the maximum concentration (reference value, marked *)” value [2] of the same compound?
Its value is 8.3* %.

And the EC50 [3]?
The EC50 was > 1 nM.

And the Emax [3]?
Its Emax is 12%.

What about the “wall-less running route staying time ratio” value ([4]; 3 mg/kg, 30 minutes before test (FIG. 1)) of the same compound?
The value was “significantly increased”.

What about the inhibition at 5 min, 10 µM [5] of the same compound?
Its inhibition at 5 min, 10 µM is < 50%.

What about the CLint scaled [6] of the same compound?
The CLint scaled was 19 mL/min/kg.

What does the source list for `Cn1c(C(=O)N2C[C@H]3C[C@@]45CC[C@@H]2[C@@H]3[C@@]42CCN(CC3CC3)[C@@H]5Cc3ccc(O)cc32)cccc1=O` [Example 10, 6-((1S,3aR,5aS,6R,11bR,11cS)-14-(cyclopropylmethyl)-10-hydroxy-2,3,3a,4,5,6,7,11c-octahydro-1H-6,11b-(epiminoethano)-1,5a-methanonaphtho[1,2-e]indole-3-carbonyl)-1-methylpyridin-2(1H)-one]?
EC50 [1]: < 3 nM; Emax [1]: 74%; μ receptor reaction rate at the maximum concentration (reference value, marked *) [2]: 6.0* %; κ receptor reaction rate at the maximum concentration (reference value, marked *) ([3]; maximum reaction not reached, maximum concentration 10 μM, U-69593 = 100%): −0.7* %; wall-less running route staying time ratio ([4]; dose not stated (FIGS. 3 to 5)): tendency of increasing; wall-less running route staying time ratio [7]: significantly increased; inhibition at 5 min, 10 µM [5]: < 50%; CLint scaled [6]: 13 mL/min/kg

Which EC50 [1] does the source give for `O=C(c1ccc[nH]c1=O)N1C[C@H]2C[C@@]34CC[C@@H]1[C@@H]2[C@@]31CCN(CC2CC2)[C@@H]4Cc2ccc(O)cc21` [Example 3, 3-((1S,3aR,5aS,6R,11bR,11cS)-14-(cyclopropylmethyl)-10-hydroxy-2,3,3a,4,5,6,7,11c-octahydro-1H-6,11b-(epiminoethano)-1,5a-methanonaphtho[1,2-e]indole-3-carbonyl)pyridin-2(1H)-one] here?
The EC50 was < 3 nM.

And the Emax [1]?
The Emax was 98%.

What about the EC50 [2] of the same compound?
The EC50 was > 1 nM.

What about the Emax [2] of the same compound?
Its Emax is 20%.

And the EC50 [3]?
The EC50 was < 1 nM.

What about the Emax [3] of the same compound?
The Emax was 15%.

And the “wall-less running route staying time ratio” value ([4]; dose not stated (FIGS. 3 to 5))?
Its value is “tendency of increasing”.

And the “wall-less running route staying time ratio” value [7]?
The value was “significantly increased”.

What about the inhibition at 5 min, 10 µM [5] of the same compound?
Its inhibition at 5 min, 10 µM is < 50%.

With `O=C(c1ccc(=O)[nH]n1)N1C[C@H]2C[C@@]34CC[C@@H]1[C@@H]2[C@@]31CCN(CC2CC2)[C@@H]4Cc2ccc(O)cc21` [Example 16, 6-((1S,3aR,5aS,6R,11bR,11cS)-14-(cyclopropylmethyl)-10-hydroxy-2,3,3a,4,5,6,7,11c-octahydro-1H-6,11b-(epiminoethano)-1,5a-methanonaphtho[1,2-e]indole-3-carbonyl)pyridazin-3(2H)-one] as the compound, how does the EC50 [1] read?
The EC50 was < 3 nM.

And the Emax [1]?
The Emax was 92%.

What about the EC50 [2] of the same compound?
The EC50 was > 1 nM.

And the Emax [2]?
Its Emax is 19%.

What about the EC50 [3] of the same compound?
Its EC50 is < 1 nM.

And the Emax [3]?
Its Emax is 29%.

What about the CLint scaled [6] of the same compound?
The CLint scaled was 18 mL/min/kg.

For `Cn1cc(C(=O)N2C[C@H]3C[C@@]45CC[C@@H]2[C@@H]3[C@@]42CCN(CC3CC3)[C@@H]5Cc3ccc(O)cc32)ccc1=O` [Example 9, 5-((1S,3aR,5aS,6R,11bR,11cS)-14-(cyclopropylmethyl)-10-hydroxy-2,3,3a,4,5,6,7,11c-octahydro-1H-6,11b-(epiminoethano)-1,5a-methanonaphtho[1,2-e]indole-3-carbonyl)-1-methylpyridin-2(1H)-one], which EC50 [1] is on record?
Its EC50 is < 3 nM.

What about the Emax [1] of the same compound?
Its Emax is 74%.

And the EC50 [2]?
Its EC50 is < 1 nM.

What about the Emax [2] of the same compound?
Its Emax is 15%.

What about the EC50 [3] of the same compound?
The EC50 was < 1 nM.

What about the Emax [3] of the same compound?
The Emax was 14%.

What about the “wall-less running route staying time ratio” value ([4]; dose not stated (FIGS. 3 to 5)) of the same compound?
The value was “tendency of increasing”.

And the inhibition at 5 min, 10 µM [5]?
Its inhibition at 5 min, 10 µM is < 50%.
